Results as given in PMC13242721 (Angewandte Chemie (International ed. in English), 2024).
Starred links: 1 amine or outer side, 2 acyl side, 3 side chain; linkers in the order of their positions; H or OH if unused. Non-standard residues stand in square brackets, D forms with d. Residues, ends and D or L forms follow the SMILES beside them. *: point of attachment. Palmitoyl = CCCCCCCCCCCCCCCC(=O)*; AzaAla = CN(N[*:1])C(=O)[*:2]

Legend:
GIPR = target: T1, GIPR (Homo sapiens, UniProt P48546); assay: cAMP luciferase reporter assay, GIPR agonism; format: cell-based
T1 sequence (P48546 22-466): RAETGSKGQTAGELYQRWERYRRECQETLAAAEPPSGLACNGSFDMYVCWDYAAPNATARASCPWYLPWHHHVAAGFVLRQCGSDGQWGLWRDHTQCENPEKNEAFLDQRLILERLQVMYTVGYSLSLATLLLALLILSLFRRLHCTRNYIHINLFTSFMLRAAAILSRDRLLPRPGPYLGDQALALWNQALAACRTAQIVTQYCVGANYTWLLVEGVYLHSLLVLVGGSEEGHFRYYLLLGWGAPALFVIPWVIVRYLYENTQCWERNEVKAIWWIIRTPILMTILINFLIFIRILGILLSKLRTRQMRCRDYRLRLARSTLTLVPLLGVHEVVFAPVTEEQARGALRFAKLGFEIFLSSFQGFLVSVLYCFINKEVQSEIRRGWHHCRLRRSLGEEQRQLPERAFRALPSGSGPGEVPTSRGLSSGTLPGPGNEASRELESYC

GLP-1R [1] = target: T2, GLP-1R (Homo sapiens, UniProt P43220)
T2 sequence (P43220 24-463): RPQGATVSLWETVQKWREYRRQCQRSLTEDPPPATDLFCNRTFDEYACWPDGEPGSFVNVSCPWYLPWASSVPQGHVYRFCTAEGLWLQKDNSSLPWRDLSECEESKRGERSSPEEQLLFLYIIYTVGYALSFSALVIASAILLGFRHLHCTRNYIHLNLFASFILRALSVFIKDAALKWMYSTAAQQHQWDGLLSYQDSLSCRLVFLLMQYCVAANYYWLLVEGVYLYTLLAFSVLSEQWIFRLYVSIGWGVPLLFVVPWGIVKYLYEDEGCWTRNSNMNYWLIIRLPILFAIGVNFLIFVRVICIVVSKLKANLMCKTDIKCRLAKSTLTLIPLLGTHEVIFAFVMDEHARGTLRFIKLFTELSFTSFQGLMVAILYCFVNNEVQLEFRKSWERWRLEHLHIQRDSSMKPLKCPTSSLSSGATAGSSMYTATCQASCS

GLP-1R [2] = target: T2, GLP-1R; assay: cAMP luciferase reporter assay, GLP-1R agonism; format: cell-based
GLP-1R [3] = target: T2, GLP-1R; conditions: alanine scanning of GLP-1; cited from earlier work

Row | Compound | EC50 (GIPR) | efficacy compared to native ligand (in words) (GIPR; GIPR, cAMP luciferase reporter assay) | Fold-Shift (↓) = (EC50 with DPP4)/(EC50 without DPP4) (GLP-1R [1]) | efficacy compared to native ligand (in words) (GLP-1R [2]) | adenylyl cyclase activity (in words) (GLP-1R [3])
1 | CCCCCCCCCCCCCCCC(=O)NCCCC[C@H](NC(=O)[C@H](CO)NC(=O)[C@@H]1CCCN1C(=O)[C@@H]1CCCN1C(=O)[C@@H]1CCCN1C(=O)[C@H](C)NC(=O)CNC(=O)[C@H](CO)NC(=O)[C@H](CO)NC(=O)[C@@H]1CCCN1C(=O)CNC(=O)CNC(=O)[C@H](C)NC(=O)[C@H](CC(C)C)NC(=O)[C@H](CC(C)C)NC(=O)[C@H](Cc1c[nH]c2ccccc12)NC(=O)[C@H](CC(N)=O)NC(=O)[C@@H](NC(=O)[C@H](Cc1ccccc1)NC(=O)[C@H](CCC(=O)O)NC(=O)[C@H](C)NC(=O)[C@H](C)NC(=O)[C@H](C)NC(=O)[C@H](CCC(N)=O)NC(=O)[C@H](CCCCN)NC(=O)[C@H](CC(=O)O)NC(=O)[C@H](CC(C)C)NC(=O)[C@H](Cc1ccc(O)cc1)NC(=O)[C@@H](NC(=O)[C@H](CO)NC(=O)[C@H](Cc1ccc(O)cc1)NC(=O)[C@H](CC(=O)O)NC(=O)[C@H](CO)NC(=O)[C@@H](NC(=O)[C@H](Cc1ccccc1)NC(=O)[C@@H](NC(=O)CNC(=O)[C@H](CCC(=O)O)NC(=O)N(C)NC(=O)[C@@H](N)Cc1ccc(O)cc1)[C@@H](C)O)[C@@H](C)O)[C@@H](C)CC)C(C)C)C(N)=O [DA X2AzaA, X20A] (H-Y[AzaAla]EGTFTSDYSIYLDKQAAAEFVNWLLAGGPSSGAPPPSK(Palmitoyl)-NH2; N-terminus and C-terminus assumed) | 2.51 pM | equiefficacious | 1.0 | equiefficacious | 
2 | Glu9Ala variant: literature alanine-scan variant of GLP-1 (HDEFERHAAGTFTSDVSSYLEGQAAKEFIAWLVKGRG; Glucagon-like peptide 1; UniProt P01275 92-128, looked up, variant E9A) |  |  |  |  | equivalent adenylyl cyclase activity
